Values of other authors in patent US20250000794A1, “IMPROVED DRUG PROCESSING METHODS TO INCREASE DRUG LOADING” (BOARD OF REGENTS, THE UNIVERSITY OF TEXAS SYSTEM, priority 2021, published 2025).

Details: water

NCCCC[C@H](N)C(=O)O [L-lysine]
Solubility (g/100 mL) Room Temperature: 150 g/100 mL
